Results published in patent publication US20220249493A1, “PHARMACEUTICAL COMPOSITION COMPRISING UDENAFIL” (COREPHARM BIO CO., LTD., priority 2019, published 2022).
Values after ≈ are worked out from the molar mass of the structure shown.

Experiment: Udenafil solubility test at different pHs
Type: physicochemical
Conditions: thermodynamic from solid; in purified water (Comparative Example 1)
Experimental: A pH adjusting agent was added to 5 ml of purified water, and the mixture was stirred for 10 minutes, and then udenafil was added thereto, thus preparing the solutions shown in Table 1 above.
Detector: UV detector (292 nm)
Column temperature: 30° C.
Mobile phase: 2.72 g of KH2PO4 dissolved in 1 L of purified water (A); acetonitrile (B); A:B=700:300

## CCCOc1ccc(S(=O)(=O)NCCC2CCCN2C)cc1-c1nc2c(CCC)nn(C)c2c(=O)[nH]1 (stereo not shown) [Udenafil, 5-[2-propyloxy-5-(1-methyl-2-pyrrolidinyleneamidosulfonyl)phenyl]-1-methyl-1-propyl-1,6-dihydro-7H-pyrazolo(4,3-d)pyrimidin-7-one]
  solubility at 2 h: ~120 µg/mL (≈ 232 µM)
